Results reported in publication PMC4942819 (Scientific Reports, 2016).
Values after ≈ are worked out from the molar mass of the structure shown. Like-named read-outs stand apart in the source and are kept apart here.

Key:
Mycobacterium avium = test: microdilution plate assay, MIC; type: cell-based
A549 cells = test: cytotoxicity, MTT assay; type: cell-based; conditions: Homo sapiens
Method: (§1) The compounds were examined for toxicity (IC50) using MTT assay. Briefly, cells (3 ~ 5 × 10^3 cells/well) were seeded in a 96-well plate. After 24 h incubation, the cells were treated with various concentrations of drugs for 24, 48, 72 h, respectively. Columns one and two in the assay plates contained-media +0.1% DMSO for a negative control ,Then, 20 μl of a 5 mg/mL MTT solution was added to each well, and the plates were incubated for an additional 2~4 h at 37 °C. The medium was subsequently discarded, and DMSO 150 μL was added to dissolve the formazan. Oscillate 15 min, the OD 570 was measured using a Spectra MAX M5 microplate spectrophotometer (Molecular Devices, CA, USA), and the IC50 values were calculated.

J774A.1 cells = test: cytotoxicity, MTT assay; type: cell-based; conditions: Mus musculus, J774.A1
Method: as §1

M. tuberculosis H37Rv = test: MABA checkerboard synergy assay; type: cell-based, Mycobacterium tuberculosis; conditions: for MIC: Mycobacterium tuberculosis, H37RV, checkerboard, drug alone, read-out: MIC against H37Rv, MIC alone
[1] = in vivo acute toxicity study; parameters: species or system BALB/c mice; AST: unit not given here; conditions: for ALB / ALP / AST / BUN / CHOL / TP: 1 g/kg i.p., 2 weeks, Mean ± SE, n = 5
Method: All animal experiments have been approved by the Institutional Animal Care and Treatment Committee of Sichuan University in China and were carried out in accordance with the approved guidelines. 20 BALB/c mice in both sexes were administered with SKLB-TB1001 CMC suspension at 1 g/kg by intraperitoneal injection, control mice remained untreated. Animals were continuously observed for 24 hours after administration. In each group, numbers of deaths and general behavior were recorded within 2 weeks, LD50 values were calculated. 2 weeks later, animals were sacrificed, blood samples were collected from the eye vein for biochemical and hematological tests. The organs and tissues of animals were removed and fixed in 10% formalin and embedded in paraffin for histological evaluation.

plasma protein binding = type: in vitro ADME; conditions: mouse, (M), read-out: Plasma protein binding (converted)
Method: (§2) The In vitro ADME/T assays were conducted at WuXi AppTec Co. Ltd.(Shanghai). ClogP was calculated with ChemDraw Ultra 14.0. In the study of bi-directional permeability across MDR1-MDCKII cell monolayer, permeability was correlated with the apparent permeability coefficient Papp (cm/s), which was interpreted as follows: Low permeability( Papp ≤ 1.0×10^-6 cm/s), Moderate permeability(1.0×10^-6 < Papp < 5.5×10^-6 cm/s) or High permeability( Papp ≥ 5.5×10^-6 cm/s). ^aaqueous solubility at room temperature.

CYP2C19 = CYP2C19 (Homo sapiens, UniProt P33261); test: CYP inhibition; type: in vitro ADME
Chain of CYP2C19 (P33261 whole entry): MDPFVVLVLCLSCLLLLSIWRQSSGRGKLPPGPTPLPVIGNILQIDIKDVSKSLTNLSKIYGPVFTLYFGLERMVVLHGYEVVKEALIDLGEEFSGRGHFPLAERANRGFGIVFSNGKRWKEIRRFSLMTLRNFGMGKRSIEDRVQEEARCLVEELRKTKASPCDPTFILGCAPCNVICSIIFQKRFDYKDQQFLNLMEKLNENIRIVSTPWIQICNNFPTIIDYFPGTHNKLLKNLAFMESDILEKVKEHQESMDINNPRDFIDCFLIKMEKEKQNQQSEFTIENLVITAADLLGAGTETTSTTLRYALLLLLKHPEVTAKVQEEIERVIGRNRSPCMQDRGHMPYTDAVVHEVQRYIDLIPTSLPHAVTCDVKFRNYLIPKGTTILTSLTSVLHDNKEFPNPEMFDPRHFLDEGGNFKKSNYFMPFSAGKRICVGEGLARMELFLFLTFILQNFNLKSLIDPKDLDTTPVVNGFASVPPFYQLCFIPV
Method: as §2

CYP2C9 = CYP2C9 (Homo sapiens, UniProt P11712); test: CYP inhibition; type: in vitro ADME
Chain of CYP2C9 (P11712 whole entry): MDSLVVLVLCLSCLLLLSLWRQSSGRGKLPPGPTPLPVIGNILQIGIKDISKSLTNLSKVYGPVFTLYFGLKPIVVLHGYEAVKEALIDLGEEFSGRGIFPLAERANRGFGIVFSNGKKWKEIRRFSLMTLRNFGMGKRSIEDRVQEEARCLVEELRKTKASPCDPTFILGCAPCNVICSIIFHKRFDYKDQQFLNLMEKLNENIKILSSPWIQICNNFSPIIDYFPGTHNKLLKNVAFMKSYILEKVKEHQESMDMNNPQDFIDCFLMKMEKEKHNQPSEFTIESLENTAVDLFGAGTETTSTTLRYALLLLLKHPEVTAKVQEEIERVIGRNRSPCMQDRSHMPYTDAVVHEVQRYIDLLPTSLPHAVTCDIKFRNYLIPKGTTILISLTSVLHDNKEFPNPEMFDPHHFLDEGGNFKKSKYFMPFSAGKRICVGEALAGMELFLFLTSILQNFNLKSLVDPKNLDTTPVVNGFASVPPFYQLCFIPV
Method: as §2

O=[N+]([O-])c1cc(C(F)(F)F)cc2c(=S)nc(N3CCC4(CC3)OCCO4)sc12 [SKLB-TB1001, 8-nitro-2-(1,4-dioxa-8-azaspiro[4.5]decan-8-yl)-6-(trifluoromethyl)-4H-benzo[e][1,3]thiazine-4-thione]
MIC (Mycobacterium avium): 32 mg/L (≈ 73.8 µM)
IC50 (A549 cells): > 100 mg/L
IC50 (J774A.1 cells): > 32 mg/L
MIC (M. tuberculosis H37Rv; 336 h): 0.02 mg/L
MIC (M. tuberculosis H37Rv): 0.02 mg/L
FICI (M. tuberculosis H37Rv; combination with linezolid): 1.34
MIC against H37Rv, MIC in combo. (M. tuberculosis H37Rv; in combination with INH): 0.007 mg/L
MIC against H37Rv, MIC in combo. (M. tuberculosis H37Rv; in combination with LZD): 0.013 mg/L
MIC against H37Rv, MIC in combo. (M. tuberculosis H37Rv; in combination with MOX): 0.008 mg/L
FICI (M. tuberculosis H37Rv; in combination with RMP): 0.22
MIC against H37Rv, MIC in combo. (M. tuberculosis H37Rv; in combination with RMP): 0.001 mg/L
decrease of MIC (M. tuberculosis H37Rv; in the presence of RMP): 5 fold
FICI (M. tuberculosis H37Rv; in the presence of isoniazid): 0.68
FICI (M. tuberculosis H37Rv; in the presence of moxifloxacin): 0.97
death in acute single dose toxicity studies ([1]; BALB/c mice, 1 g/kg, 14 days): no death
pathological changes in heart, liver, lung, kidneys and spleen ([1]; BALB/c mice, 1 g/kg, 14 days): No observable pathological changes
maximum non-toxic dose ([1]; BALB/c mice, single dose, intraperitoneal): greater than 1 g/kg
ALB ([1]; Female Treatment): 32.18 ± 0.65 g/L
ALP ([1]; Female Treatment): 162.00 ± 4.70 U/L
AST ([1]; Female Treatment): 154.60 ± 5.57
BUN ([1]; Female Treatment): 7.06 ± 0.35 mmol/L
CHOL ([1]; Female Treatment): 3.31 ± 0.08 mmol/L
TP ([1]; Female Treatment): 68.56 ± 1.42 g/L
ALB ([1]; Male Treatment): 32.84 ± 0.44 g/L
ALP ([1]; Male Treatment): 159.20 ± 6.98 U/L
AST ([1]; Male Treatment): 153.40 ± 4.30
BUN ([1]; Male Treatment): 7.10 ± 0.60 mmol/L
CHOL ([1]; Male Treatment): 3.31 ± 0.07 mmol/L
TP ([1]; Male Treatment): 68.38 ± 1.58 g/L
fraction unbound (plasma protein binding): 0.038
IC50 (CYP2C19): > 10 µM
IC50 (CYP2C9): > 10 µM
